Measurements taken from patent publication US20220296534A1 (SOCIETE DES PRODUITS NESTLE S.A., priority 2019, published 2022).

Tests used:
human primary islets = experiment: Glucose stimulated insulin secretion in human primary islets, insulin by ELISA; type: cell-based; conditions: 1 μM, FIG. 3
Description: The insulin concentration in the collected supernatants were measured by an ELISA kit according to the manufacturer recommendations and using a rat insulin antibody (Insulin rat high range ELISA Alpco Cat no 80-INSRTH-E10). Very briefly, rat monoclonal antibodies specific for insulin were immobilized to 96-well plates. Standards, samples and controls were added to the appropriate wells with a horseradish peroxidase enzyme-labeled monoclonal antibody (Conjugate). After incubation, the microplates were washed to remove unbound Conjugate and a TMB substrate solution was added to react with the bound Conjugate. Finally, after addition of a stop solution, the optical density was measured at 450 nm using a reference wavelength of 620 nm. The intensity of the yellow color is directly proportional to the amount of insulin within the samples. Human primary islets: Human islets from non-diabetic deceased male donors were purchased from Tebu-bio (Le-Perray-en-Yvelines, France). […] Insulin in supernatants was determined with specific ELISA kits, according to the manufacturer's instructions (Ultrasensitive Insulin ELISA, ALPCO Diagnostics, Salem, USA). […] Insulin was measured in the cell lysates using specific ELISA kits (Ultrasensitive Insulin ELISA, ALPCO Diagnostics) and normalised to DNA content.

INS-1 cells = experiment: Glucose stimulated insulin secretion (GSIS) in INS-1 cells, insulin by ELISA; type: cell-based, rat; conditions: FIG. 2
Description: INS-1 cellular model: The β pancreatic INS-1 cells were selected for their insulin secretion profile in response to glucose and to other physiological or pharmacological insulin secretagogues such as sulfonylureas and GLP-1. The cells were cultured in complete medium, RPMI 1640 11 mM glucose supplemented with 1 mM sodium pyruvate, 50 μM 2-mercaptoethanol, 2 mM glutamine, 10 mM HEPES, 100 IU/mL penicillin, 100 μg/mL streptomycin and 10% heat-inactivated foetal calf serum (FCS), as described by Asfari et al. (Endocrinology 130: 167-178, 1992). For the insulin secretion assay, INS-1 cells were plated and cultured in 96-well poly ornithine coated plates. The day before insulin secretion test, the medium were removed and replaced by RPMI 5 mM glucose supplemented with FCS 1%. The day of the insulin secretion test, the cells were washed with Krebs-Ringer Bicarbonate HEPES buffer (KRBH; pH 7.4) 0.1% BSA and pre-incubated for 30 min at 37° C. in KRBH 0.1% BSA containing 2.8 mM glucose. The cells were then washed again with KRBH and incubated with the tested ingredients for 60 min in KRBH 0.1% BSA containing glucose (5 or 16 mM). The supernatants were collected and frozen before insulin determination. The insulin concentration in the collected supernatants were measured by an ELISA kit according to the manufacturer recommendations and using a rat insulin antibody (Insulin rat high range ELISA Alpco Cat no 80-INSRTH-E10). Very briefly, rat monoclonal antibodies specific for insulin were immobilized to 96-well plates. Standards, samples and controls were added to the appropriate wells with a horseradish peroxidase enzyme-labeled monoclonal antibody (Conjugate). After incubation, the microplates were washed to remove unbound Conjugate and a TMB substrate solution was added to react with the bound Conjugate. Finally, after addition of a stop solution, the optical density was measured at 450 nm using a reference wavelength of 620 nm. The intensity of the yellow color is directly proportional to the amount of insulin within the samples. […]

[1] = humans; cited from earlier work

O[C@H]1[C@H](O)[C@@H](O)[C@H](O)[C@@H](O)[C@@H]1O [scyllo-inositol, (1r,2r,3r,4r,5r,6r)-Cyclohexane-1,2,3,4,5,6-hexol]
effect on insulin secretion over the control condition (5 mM glucose) (human primary islets): synergistic effect
glucose stimulated insulin secretion (GSIS), expressed as a percentage versus glucose (INS-1 cells; 20 μM scyllo-inositol): 120%
glucose stimulated insulin secretion (GSIS), expressed as a percentage versus glucose (INS-1 cells; 2000 μM scyllo-inositol): 142%
concentration at which GSIS reaches a plateau (INS-1 cells; doses from 20 to 2000 μM): 1000 to 2000 µM
mean time to reach the maximum level after ingestion [1]: about 3.8 h
